Laboratory results: the RepoRT retention time repository

Experiment: HILIC, Waters ACQUITY UPLC BEH Amide, 100 × 2.1 mm, 1.7 µm; A: water + 0.125% formic acid + 10 mM ammonium formate; B: 5% water + 95% acetonitrile + 0.125% formic acid + 10 mM ammonium formate; gradient (min/%B) 0/100 2/100 7.7/70 9.5/40 10.25/30 12.75/100 17/100
Conditions: stereoisomer not certain

SMILES: Nc1ccn(C2OC(COP(=O)(O)O)C(O)C2O)c(=O)n1 (centres undefined) [Cytidine-5'-monophosphate]
- LC retention time: 9.48 min

SMILES: Nc1ccnc(=O)[nH]1 [Cytosine]
- LC retention time: 5.9 min

SMILES: O=c1c(-c2ccc(O)cc2)coc2cc(O)ccc12 [Daidzein]
- LC retention time: 1.39 min

SMILES: CCCCCCCCCC=O [Decanal]
- LC retention time: 2.17 min

SMILES: CC(CCC(=O)O)C1CCC2C3C(=O)CC4CC(=O)CCC4(C)C3CC(=O)C12C (centres undefined) [Dehydrocholic acid]
- LC retention time: 1.16 min

SMILES: CC12CCC3C(CC=C4CC(O)CCC43C)C1CCC2=O (centres undefined) [Dehydroepiandrosterone]
- LC retention time: 1.03 min

SMILES: O=c1ccn(C2CC(O)C(COP(=O)(O)O)O2)c(=O)[nH]1 (centres undefined) [Deoxyuridine monophosphate]
- LC retention time: 8.25 min

SMILES: Clc1ccc2c(c1)CCc1cccnc1C2=C1CCNCC1 [Desloratadine]
- LC retention time: 4.9 min

SMILES: CC1CC2C3CCC4=CC(=O)C=CC4(C)C3(F)C(O)CC2(C)C1C(=O)CO (centres undefined) [Desoximetasone]
- LC retention time: 1.13 min

SMILES: CS(=O)CCCCC(=NO)SC1OC(CO)C(O)C(O)C1O (centres undefined) [Desulfo Glucoraphanin]
- LC retention time: 6.61 min

SMILES: CN(C)CCC(c1ccc(Br)cc1)c1ccccn1 (centres undefined) [Dexbrompheniramine]
- LC retention time: 2.56 min

SMILES: COc1ccc2c(c1)C13CCCCC1C(C2)N(C)CC3 (centres undefined) [Dextromethorphan]
- LC retention time: 2.64 min

SMILES: CN1CCC23CCCCC2C1Cc1ccc(O)cc13 (centres undefined) [Dextrorphan]
- LC retention time: 3.87 min

SMILES: CN1C(=O)CN=C(c2ccccc2)c2cc(Cl)ccc21 [Diazepam]
- LC retention time: 1.1 min

SMILES: CC1=NS(=O)(=O)c2cc(Cl)ccc2N1 [Diazoxide]
- LC retention time: 1.09 min

SMILES: O=C(O)Cc1ccccc1Nc1c(Cl)cccc1Cl [Diclofenac]
- LC retention time: 1.08 min

SMILES: COc1cc(CNC(=O)CCCCCCC(C)C)ccc1O [Dihydrocapsaicin]
- LC retention time: 1.07 min

SMILES: CCCCCCCCCCCCCCCC(O)C(N)CO (centres undefined) [Dihydrosphingosine]
- LC retention time: 4.47 min

SMILES: CC(CO)CCNc1ncnc2nc[nH]c12 (centres undefined) [Dihydrozeatin]
- LC retention time: 2.99 min

SMILES: COC(=O)c1ccccc1C(=O)OC [Dimethyl phthalate]
- LC retention time: 1.04 min

SMILES: CCCCCCCCOC(=O)c1ccccc1C(=O)OCCCCCCCC [Dioctyl Phthalate]
- LC retention time: 0.96 min

SMILES: CN(C)CCOC(c1ccccc1)c1ccccc1 [Diphenhydramine]
- LC retention time: 2.15 min

SMILES: CCOC(=O)C1(c2ccccc2)CCN(CCC(C#N)(c2ccccc2)c2ccccc2)CC1 [Diphenoxylate]
- LC retention time: 1.41 min

SMILES: O=c1c(-c2ccccc2)c1-c1ccccc1 [Diphenylcyclopropenone]
- LC retention time: 1.01 min

SMILES: CCN(CC)C(=S)SSC(=S)N(CC)CC [Disulfiram]
- LC retention time: 0.93 min

SMILES: CC(=O)OC12COC1CC(O)C1(C)C(=O)C(O)C3=C(C)C(OC(=O)C(O)C(NC(=O)OC(C)(C)C)c4ccccc4)CC(O)(C(OC(=O)c4ccccc4)C21)C3(C)C (centres undefined) [Docetaxel]
- LC retention time: 1.34 min

SMILES: CN(CCOc1ccc(NS(C)(=O)=O)cc1)CCc1ccc(NS(C)(=O)=O)cc1 [Dofetilide]
- LC retention time: 3.38 min

SMILES: O=C(OC1CC2CC3CC(C1)N2CC3=O)c1c[nH]c2ccccc12 (centres undefined) [Dolasetron]
- LC retention time: 1.9 min

SMILES: COc1cc2c(cc1OC)C(=O)C(CC1CCN(Cc3ccccc3)CC1)C2 (centres undefined) [Donepezil]
- LC retention time: 2.44 min

SMILES: NCCc1ccc(O)c(O)c1 [Dopamine]
- LC retention time: 6.4 min

SMILES: CCN1CC(CCN2CCOCC2)C(c2ccccc2)(c2ccccc2)C1=O (centres undefined) [Doxapram]
- LC retention time: 1.64 min

SMILES: CN(C)CCC=C1c2ccccc2COc2ccccc21 [Doxepin]
- LC retention time: 2.26 min

SMILES: CN(C)CCOC(C)(c1ccccc1)c1ccccn1 (centres undefined) [Doxylamine]
- LC retention time: 2.45 min

SMILES: O=C(CCCN1CC=C(n2c(=O)[nH]c3ccccc32)CC1)c1ccc(F)cc1 [Droperidol]
- LC retention time: 3.48 min

SMILES: CNCCC(Oc1cccc2ccccc12)c1cccs1 (centres undefined) [Duloxetine]
- LC retention time: 2.6 min

SMILES: CC=C1N(C)C(C)CC1(c1ccccc1)c1ccccc1 (centres undefined) [EDDP]
- LC retention time: 1.9 min

SMILES: COC(=O)C1C(O)CC2CCC1N2C (centres undefined) [Ecgonine methylester]
- LC retention time: 4.18 min

SMILES: CN1C2CCC1C(C(=O)O)C(O)C2 (centres undefined) [Ecgonine]
- LC retention time: 7.61 min

SMILES: O=C1Nc2ccc(Cl)cc2C(C#CC2CC2)(C(F)(F)F)O1 (centres undefined) [Efavirenz]
- LC retention time: 0.98 min

SMILES: CC(NC(CCc1ccccc1)C(=O)O)C(=O)N1CCCC1C(=O)O (centres undefined) [Enalaprilat]
- LC retention time: 7.07 min

SMILES: CCN1CCN(c2cc3c(cc2F)c(=O)c(C(=O)O)cn3C2CC2)CC1 [Enrofloxacin]
- LC retention time: 3.31 min

SMILES: Oc1cc(O)c2c(c1)OC(c1cc(O)c(O)c(O)c1)C(O)C2 (centres undefined) [Epigallocatechin]
- LC retention time: 10.2 min

SMILES: Oc1ccc(C2COc3cc(O)ccc3C2)cc1 (centres undefined) [Equol]
- LC retention time: 1.19 min

SMILES: CC(C)C(C)C=CC(C)C1CCC2C3=CC=C4CC(O)CCC4(C)C3CCC21C (centres undefined) [Ergosterol]
- LC retention time: 1.43 min

SMILES: C[N+](C)(C)C(Cc1c[nH]c(=S)[nH]1)C(=O)[O-] (centres undefined) [Ergothioneine]
- LC retention time: 7.74 min

SMILES: CCCCCCCCC=CCCCCCCCCCCCC(N)=O [Erucamide]
- LC retention time: 1.06 min

SMILES: COC(=O)CCc1ccc(OCC(O)CNC(C)C)cc1 (centres undefined) [Esmolol]
- LC retention time: 3.13 min

SMILES: NCCO [Ethanolamine]
- LC retention time: 7.15 min

SMILES: CCCC(=O)OCC [Ethylbutanoate]
- LC retention time: 4.88 min

SMILES: C#CC1(O)CCC2C3CCc4cc(O)ccc4C3CCC21C (centres undefined) [Ethynylestradiol]
- LC retention time: 0.99 min

SMILES: CCOC(=O)c1cncn1C(C)c1ccccc1 (centres undefined) [Etomidate]
- LC retention time: 0.98 min

SMILES: COc1cc(C2c3cc4c(cc3C(OC3OC5COC(C)OC5C(O)C3O)C3COC(=O)C23)OCO4)cc(OC)c1O (centres undefined) [Etoposide]
- LC retention time: 1.3 min

SMILES: C=C1CC2C(CCC3(C)C(=O)CCC23)C2(C)C=CC(=O)C=C12 (centres undefined) [Exemestane]
- LC retention time: 0.98 min

SMILES: O=C1C(CCC(O)c2ccc(F)cc2)C(c2ccc(O)cc2)N1c1ccc(F)cc1 (centres undefined) [Ezetimibe]
- LC retention time: 1.03 min

SMILES: CC(=O)OCC(CCn1cnc2cnc(N)nc21)COC(C)=O [Famciclovir]
- LC retention time: 1.38 min

SMILES: NC(N)=Nc1nc(CSCCC(N)=NS(N)(=O)=O)cs1 [Famotidine]
- LC retention time: 5.59 min

SMILES: NC(=O)OCC(COC(N)=O)c1ccccc1 [Felbamate]
- LC retention time: 1.2 min

SMILES: CCNC(C)Cc1cccc(C(F)(F)F)c1 (centres undefined) [Fenfluramine]
- LC retention time: 2.33 min

SMILES: Oc1ccc(C2CNCCc3c2cc(O)c(O)c3Cl)cc1 (centres undefined) [Fenoldopam]
- LC retention time: 5.68 min

SMILES: CCOC(=O)C(C)Oc1ccc(Oc2nc3ccc(Cl)cc3o2)cc1 (centres undefined) [Fenoxaprop-P-ethyl]
- LC retention time: 1.01 min

SMILES: COc1cc(/C=C/C(=O)O)ccc1O [Ferulic acid]
- LC retention time: 1.36 min

SMILES: CC(C)(C)NC(=O)C1CCC2C3CCC4NC(=O)C=CC4(C)C3CCC12C (centres undefined) [Finasteride]
- LC retention time: 1.17 min

SMILES: COC(=O)Nc1nc2ccc(C(=O)c3ccc(F)cc3)cc2[nH]1 [Flubendazole]
- LC retention time: 1.16 min

SMILES: CCOC(=O)c1ncn2c1CN(C)C(=O)c1cc(F)ccc1-2 [Flumazenil]
- LC retention time: 1.08 min

SMILES: CN1C(=O)CN=C(c2ccccc2F)c2cc([N+](=O)[O-])ccc21 [Flunitrazepam]
- LC retention time: 1.05 min

SMILES: c1ccc2c(c1)Cc1ccccc1-2 [Fluorene]
- LC retention time: 6.66 min

SMILES: CN1CCN(C2=Nc3cc(F)ccc3Cc3ccccc32)CC1 [Fluperlapine]
- LC retention time: 2.3 min

SMILES: OCCN1CCN(CCCN2c3ccccc3Sc3ccc(C(F)(F)F)cc32)CC1 [Fluphenazine]
- LC retention time: 2.74 min

SMILES: CCN(CC)CCN1C(=O)CN=C(c2ccccc2F)c2cc(Cl)ccc21 [Flurazepam]
- LC retention time: 2.41 min

SMILES: COCCCCC(=NOCCN)c1ccc(C(F)(F)F)cc1 [Fluvoxamine]
- LC retention time: 2.93 min

SMILES: Nc1nc2c(c(=O)[nH]1)N(C=O)C(CNc1ccc(C(=O)NC(CCC(=O)O)C(=O)O)cc1)CN2 (centres undefined) [Folinic acid]
- LC retention time: 7.92 min

SMILES: COc1ccc(-c2coc3cc(O)ccc3c2=O)cc1 [Formononetine]
- LC retention time: 1.18 min

SMILES: COc1ccc(CC(C)NCC(O)c2ccc(O)c(NC=O)c2)cc1 (centres undefined) [Formoterol]
- LC retention time: 5.18 min

SMILES: CC(=O)OC1CC(C)(C)C(=C=CC(C)=CC=CC(C)=CC=CC=C(C)C=CC=C(C)C(=O)CC23OC2(C)CC(O)CC3(C)C)C(C)(O)C1 (centres undefined) [Fucoxanthin]
- LC retention time: 1.07 min

SMILES: CCOC(=O)c1ccc(OC(=O)CCCCCN=C(N)N)cc1 [Gabexate]
- LC retention time: 3.45 min

SMILES: NC1C(O)OC(CO)C(O)C1O (centres undefined) [Galactosamine]
- LC retention time: 8.44 min

SMILES: COc1ccc2c3c1OC1CC(O)C=CC31CCN(C)C2 (centres undefined) [Galanthamine]
- LC retention time: 4.62 min

SMILES: COC(=O)C1=COC(OC2OC(CO)C(O)C(O)C2O)C2C(CO)=CCC12 (centres undefined) [Geniposide]
- LC retention time: 4.53 min

SMILES: O=C(O)c1cc(O)ccc1O [Gentisinic acid]
- LC retention time: 3.18 min

SMILES: CC(C)=CCCC(C)=CC(=O)O [Geranic acid]
- LC retention time: 1.3 min

SMILES: CCC1=C(C)CN(C(=O)NCCc2ccc(S(=O)(=O)NC(=O)NC3CCC(C)CC3)cc2)C1=O (centres undefined) [Glimepiride]
- LC retention time: 1.05 min

SMILES: NC(N)=NCCCC(NC(=O)C(N)CCC(=O)O)C(=O)O (centres undefined) [Glu-Arg]
- LC retention time: 9.9 min

SMILES: NC(=O)CCC(NC(=O)C(N)CCC(=O)O)C(=O)O (centres undefined) [Glu-Gln]
- LC retention time: 9.6 min

SMILES: NCCCCC(NC(=O)C(N)CCC(=O)O)C(=O)O (centres undefined) [Glu-Lys]
- LC retention time: 9.9 min

SMILES: NC(CCC(=O)O)C(=O)NC(Cc1ccccc1)C(=O)O (centres undefined) [Glu-Phe]
- LC retention time: 8.2 min

SMILES: CC(O)C(NC(=O)C(N)CCC(=O)O)C(=O)O (centres undefined) [Glu-Thr]
- LC retention time: 9.44 min

SMILES: CC(C)C(NC(=O)C(N)CCC(=O)O)C(=O)NC(Cc1ccccc1)C(=O)O (stereo not drawn) [Glu-Val-Phe]
- LC retention time: 7.66 min

SMILES: O=C1OC(CO)C(O)C(O)C1O (centres undefined) [Gluconolactone]
- LC retention time: 8.15 min

SMILES: CS(=O)CCCCC(=NOS(=O)(=O)O)SC1OC(CO)C(O)C(O)C1O (centres undefined) [Glucoraphanin]
- LC retention time: 7.37 min
